These are literature values, as cited in US11291658B2, “Use of gaboxadol in the treatment of diabetes and related conditions” (Ovid Therapeutics Inc., priority 2017, dated 2022).

Series [1] has as its system streptozotocin-induced diabetic rats with moderate to severe hyperglycemia. The following applies: Gomez et al. 1999.
For series [2] the following is noted: treatment of insomnia, three-month efficacy study.
The conditions of series [3]: patients with a history of drug abuse who received gaboxadol.

Consider `Oc1noc2c1CCNC2` [gaboxadol, 4,5,6,7-tetrahydroisoxazolo [5,4-c]pyridine-3-ol], for which the hypoglycemic effect result in series [1] is “very mild and could only be seen in the moderately hyperglycemic rats”. In addition, in series [2], the “effects in sleep onset and sleep maintenance” value is “failed to show significant effects”. Moreover, the psychiatric adverse events result in series [3] is recorded as “steep increase in psychiatric adverse events”.
